Molecular target: TYK2 (Homo sapiens, UniProt P29597)
Assay: TYK2 protein degradation in MOLT-4 cells by immunoblotting
Type: cell-based
Parameters: endogenous in cells; host or cells: MOLT-4
Details: MOLT-4 cells, 24 hours
Protocol: MOLT-4 cells were treated with compounds at 0.5 and 5 μM concentrations for 24 hours.
MOLT-4 cells were treated with CPD-038, CPD-039, and CPD-040 at 0.04, 0.2, 1, and 5 μM concentrations for 24 hours.
MOLT-4 or NOMO-1 cells were cultured at 37° C. with 5% CO2 in RPMI 1640 Medium supplemented with 10% fetal bovine serum. Cells were authenticated using the short tandem repeat (STR) assays. Mycoplasma test results were negative.
Cultured cells were washed with cold PBS once and lysed in cold RIPA buffer supplemented with protease inhibitors and phosphatase inhibitors (Beyotime Biotechnology). The solutions were then incubated at 4° C. for 30 minutes with gentle agitation to fully lyse cells. Cell lysates were centrifuged at 13,000 rpm for 10 minutes at 4° C. and pellets were discarded. Total protein concentrations in the lysates were determined by BCA assays (Beyotime Biotechnology). Cell lysates were mixed with Laemmli loading buffer to 1× and heated at 99° C. for 5 min. Proteins were resolved on SDS-PAGE and visualized by chemiluminescence. Images were taken by a ChemiDoc MP Imaging system (Bio-Rad). Protein bands were quantitated using the accompanied software provided by Bio-Rad.
The percentage of TYK2 protein degradation of each compound at 0.5 and 5 μM determined in MOLT-4 cells as described in Methods.

TYK2, sequence (P29597 whole entry): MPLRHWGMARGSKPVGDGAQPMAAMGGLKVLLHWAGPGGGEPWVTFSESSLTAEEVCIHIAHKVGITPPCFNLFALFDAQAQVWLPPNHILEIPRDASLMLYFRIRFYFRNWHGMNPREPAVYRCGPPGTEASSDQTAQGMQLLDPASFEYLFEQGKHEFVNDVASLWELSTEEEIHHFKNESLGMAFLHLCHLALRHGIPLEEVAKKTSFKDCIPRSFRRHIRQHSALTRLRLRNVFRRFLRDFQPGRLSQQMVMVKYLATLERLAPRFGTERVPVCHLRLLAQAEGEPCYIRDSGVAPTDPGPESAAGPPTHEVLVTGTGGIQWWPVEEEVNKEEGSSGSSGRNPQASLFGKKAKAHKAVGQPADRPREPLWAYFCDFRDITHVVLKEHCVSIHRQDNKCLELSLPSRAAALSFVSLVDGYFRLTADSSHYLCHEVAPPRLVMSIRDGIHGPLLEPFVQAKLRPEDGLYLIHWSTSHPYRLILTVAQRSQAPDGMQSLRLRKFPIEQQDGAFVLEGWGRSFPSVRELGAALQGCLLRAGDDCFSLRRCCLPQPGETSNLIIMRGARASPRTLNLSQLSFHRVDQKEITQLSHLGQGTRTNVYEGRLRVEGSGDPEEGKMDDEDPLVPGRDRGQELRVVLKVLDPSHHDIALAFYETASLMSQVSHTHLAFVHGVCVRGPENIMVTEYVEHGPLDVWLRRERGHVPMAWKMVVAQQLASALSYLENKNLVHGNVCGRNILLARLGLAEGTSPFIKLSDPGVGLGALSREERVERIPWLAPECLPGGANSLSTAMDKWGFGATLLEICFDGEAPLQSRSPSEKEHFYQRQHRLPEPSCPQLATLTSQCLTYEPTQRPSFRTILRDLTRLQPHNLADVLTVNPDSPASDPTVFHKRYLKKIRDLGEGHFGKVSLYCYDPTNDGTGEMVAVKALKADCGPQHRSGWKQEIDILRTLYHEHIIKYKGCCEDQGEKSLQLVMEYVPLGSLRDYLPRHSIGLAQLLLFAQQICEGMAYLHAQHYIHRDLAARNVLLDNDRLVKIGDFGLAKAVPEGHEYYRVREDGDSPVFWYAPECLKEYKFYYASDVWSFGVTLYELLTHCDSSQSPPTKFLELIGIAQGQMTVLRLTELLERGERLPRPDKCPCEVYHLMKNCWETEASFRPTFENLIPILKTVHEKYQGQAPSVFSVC

Structure (SMILES)	TYK2 Degradation (MOLT-4, 0.5 μM)	TYK2 Degradation (MOLT-4, 5 μM)	TYK2 Degradation (0.5 μM) [%]	TYK2 Degradation (5 μM) [%]
CNC(=O)c1nnc(NC(=O)C2CC2)cc1Nc1cccc(-c2ncn(CCNC(=O)CCNc3cccc4c3C(=O)N(C3CCC(=O)NC3=O)C4=O)n2)c1OC (stereo not shown) [CPD-002, 6-(Cyclopropanecarboxamido)-4-((3-(1-(2-(3-((2-(2,6-dioxopiperidin-3-yl)-1,3-dioxoisoindolin-4-yl)amino)propanamido)ethyl)-1H-1,2,4-triazol-3-yl)-2-methoxyphenyl)amino)-N-methylpyridazine-3-carboxamide]	–	–	≤20	–
CNC(=O)c1nnc(NC(=O)CNC(=O)CCCCCC(=O)N[C@H](C(=O)N2C[C@H](O)C[C@H]2C(=O)NCc2ccc(-c3scnc3C)cc2)C(C)(C)C)cc1Nc1cccc(-c2ncn(C)n2)c1OC [CPD-037, N^1—((S)-1-((2S,4R)-4-Hydroxy-2-((4-(4-methylthiazol-5-yl)benzyl)carbamoyl)pyrrolidin-1-yl)-3,3-dimethyl-1-oxobutan-2-yl)-N^7-(2-((5-((2-methoxy-3-(1-methyl-1H-1,2,4-triazol-3-yl)phenyl)amino)-6-(methylcarbamoyl)pyridazin-3-yl)amino)-2-oxoethyl)heptanediamide]	–	–	≤20	30
CNC(=O)c1nnc(NC(=O)CNC(=O)CCOCCOCCC(=O)N[C@H](C(=O)N2C[C@H](O)C[C@H]2C(=O)NCc2ccc(-c3scnc3C)cc2)C(C)(C)C)cc1Nc1cccc(-c2ncn(C)n2)c1OC [CPD-028, 6-((S)-15-((2S,4R)-4-Hydroxy-2-((4-(4-methylthiazol-5-yl)benzyl)carbamoyl)pyrrolidine-1-carbonyl)-16,16-dimethyl-4,13-dioxo-7,10-dioxa-3,14-diazaheptadecanamido)-4-((2-methoxy-3-(1-methyl-1H-1,2,4-triazol-3-yl)phenyl)amino)-N-methylpyridazine-3-carboxamide]	–	–	≤20	≤20
CNC(=O)c1nnc(NC(=O)CNC(=O)CCOCCOCCOCCOCCC(=O)N[C@H](C(=O)N2C[C@H](O)C[C@H]2C(=O)NCc2ccc(-c3scnc3C)cc2)C(C)(C)C)cc1Nc1cccc(-c2ncn(C)n2)c1OC [CPD-031, N^1—((S)-1-((2S,4R)-4-Hydroxy-2-((4-(4-methylthiazol-5-yl)benzyl)carbamoyl)pyrrolidin-1-yl)-3,3-dimethyl-1-oxobutan-2-yl)-N^16-(2-((5-((2-methoxy-3-(1-methyl-1H-1,2,4-triazol-3-yl)phenyl)amino)-6-(methylcarbamoyl)pyridazin-3-yl)amino)-2-oxoethyl)-4,7,10,13-tetraoxahexadecanediamide]	–	–	≤20	≤20
CNC(=O)c1nnc(Nc2ccc(N3CCN(C(=O)CCCCCC(=O)N[C@H](C(=O)N4C[C@H](O)C[C@H]4C(=O)NCc4ccc(-c5scnc5C)cc4)C(C)(C)C)CC3)cn2)cc1Nc1cccc(-c2ncn(C)n2)c1OC [CPD-099, 6-((5-(4-(7-(((S)-1-((2S,4R)-4-hydroxy-2-((4-(4-methylthiazol-5-yl)benzyl)carbamoyl)pyrrolidin-1-yl)-3,3-dimethyl-1-oxobutan-2-yl)amino)-7-oxoheptanoyl)piperazin-1-yl)pyridin-2-yl)amino)-4-((2-methoxy-3-(1-methyl-JH-1,2,4-triazol-3-yl)phenyl)amino)-N-methylpyridazine-3-carboxamide]	A (A: ≥60% TYK2 degradation)	B (B: <60% TYK2 degradation, and >20% TYK2 degradation)	–	–
CNC(=O)c1nnc(NC(=O)CNC(=O)COCCOCCOCC(=O)N[C@H](C(=O)N2C[C@H](O)C[C@H]2C(=O)NCc2ccc(-c3scnc3C)cc2)C(C)(C)C)cc1Nc1cccc(-c2ncn(C)n2)c1OC [CPD-029, 6-((S)-16-((2S,4R)-4-Hydroxy-2-((4-(4-methylthiazol-5-yl)benzyl)carbamoyl)pyrrolidine-1-carbonyl)-17,17-dimethyl-4,14-dioxo-6,9,12-trioxa-3,15-diazaoctadecanamido)-4-((2-methoxy-3-(1-methyl-1H-1,2,4-triazol-3-yl)phenyl)amino)-N-methylpyridazine-3-carboxamide]	–	–	≤20	≤20
CNC(=O)c1nnc(NC(=O)CNC(=O)CCCCCCCNc2ccc3c(c2)C(=O)N(C2CCC(=O)NC2=O)C3=O)cc1Nc1cccc(-c2ncn(C)n2)c1OC (stereo not shown) [CPD-060, 6-(2-(8-((2-(2,6-Dioxopiperidin-3-yl)-1,3-dioxoisoindolin-5-yl)amino)octanamido)acetamido)-4-((2-methoxy-3-(1-methyl-1H-1,2,4-triazol-3-yl)phenyl)amino)-N-methylpyridazine-3-carboxamide]	–	–	≤20	≤20
CNC(=O)c1nnc(NC(=O)CNC(=O)CCCCCCCCCOc2cc(-c3scnc3C)ccc2CNC(=O)[C@@H]2C[C@@H](O)CN2C(=O)[C@@H](NC(=O)C2(F)CC2)C(C)(C)C)cc1Nc1cccc(-c2ncn(C)n2)c1OC [CPD-109, 6-(2-(10-(2-(((2S,4R)-1-((S)-2-(1-Fluorocyclopropane-1-carboxamido)-3,3-dimethylbutanoyl)-4-hydroxypyrrolidine-2-carboxamido)methyl)-5-(4-methylthiazol-5-yl)phenoxy)decanamido)acetamido)-4-((2-methoxy-3-(1-methyl-JH-1,2,4-triazol-3-yl)phenyl)amino)-N-methylpyridazine-3-carboxamide]	B (B: <60% TYK2 degradation, and >20% TYK2 degradation)	A (A: ≥60% TYK2 degradation)	–	–

The next lines start with the values.

TYK2 Degradation (MOLT-4, 0.5 μM)	TYK2 Degradation (MOLT-4, 5 μM)	TYK2 Degradation (0.5 μM) [%]	TYK2 Degradation (5 μM) [%]	Structure (SMILES)
C (C: ≤20% TYK2 degradation)	C (C: ≤20% TYK2 degradation)	–	–	CNC(=O)c1nnc(NC(=O)C2CC2)cc1Nc1cccc(-c2ncn(CCNC(=O)CCCCCCCCC(=O)N[C@H](C(=O)N3C[C@H](O)C[C@H]3C(=O)NCc3ccc(-c4scnc4C)cc3)C(C)(C)C)n2)c1OC [CPD-081, N^1-(2-(3-(3-((6-(Cyclopropanecarboxamido)-3-(methylcarbamoyl)pyridazin-4-yl)amino)-2-methoxyphenyl)-1H-1,2,4-triazol-1-yl)ethyl)-N^10-((S)-1-((2S,4R)-4-hydroxy-2-((4-(4-methylthiazol-5-yl)benzyl)carbamoyl)pyrrolidin-1-yl)-3,3-dimethyl-1-oxobutan-2-yl)decanediamide]
–	–	≤20	≤20	CNC(=O)c1nnc(NC(=O)C2CC2)cc1Nc1cccc(-c2ncn(CCNC(=O)CCOCCC(=O)N[C@H](C(=O)N3C[C@H](O)C[C@H]3C(=O)NCc3ccc(-c4scnc4C)cc3)C(C)(C)C)n2)c1OC [CPD-067, 6-(Cyclopropanecarboxamido)-4-((3-(1-(2-(3-(3-(((S)-1-((2S,4R)-4-hydroxy-2-((4-(4-methylthiazol-5-yl)benzyl)carbamoyl)pyrrolidin-1-yl)-3,3-dimethyl-1-oxobutan-2-yl)amino)-3-oxopropoxy)propanamido)ethyl)-1H-1,2,4-triazol-3-yl)-2-methoxyphenyl)amino)-N-methylpyridazine-3-carboxamide]
C (C: ≤20% TYK2 degradation)	C (C: ≤20% TYK2 degradation)	–	–	CNC(=O)c1nnc(NC(=O)C2CC2)cc1Nc1cccc(-c2ncn(CCNC(=O)CCCCCCC(=O)N[C@H](C(=O)N3C[C@H](O)C[C@H]3C(=O)NCc3ccc(-c4scnc4C)cc3)C(C)(C)C)n2)c1OC [CPD-079, N^1-(2-(3-(3-((6-(Cyclopropanecarboxamido)-3-(methylcarbamoyl)pyridazin-4-yl)amino)-2-methoxyphenyl)-1H-1,2,4-triazol-1-yl)ethyl)-N^8-((S)-1-((2S,4R)-4-hydroxy-2-((4-(4-methylthiazol-5-yl)benzyl)carbamoyl)pyrrolidin-1-yl)-3,3-dimethyl-1-oxobutan-2-yl)octanediamide]
C (C: ≤20% TYK2 degradation)	C (C: ≤20% TYK2 degradation)	–	–	CNC(=O)c1nnc(NC(=O)C2CC2)cc1Nc1cccc(-c2ncn(CCNC(=O)CCCCCCCC(=O)N[C@H](C(=O)N3C[C@H](O)C[C@H]3C(=O)NCc3ccc(-c4scnc4C)cc3)C(C)(C)C)n2)c1OC [CPD-080, N^1-(2-(3-(3-((6-(Cyclopropanecarboxamido)-3-(methylcarbamoyl)pyridazin-4-yl)amino)-2-methoxyphenyl)-1H-1,2,4-triazol-1-yl)ethyl)-N^9-((S)-1-((2S,4R)-4-hydroxy-2-((4-(4-methylthiazol-5-yl)benzyl)carbamoyl)pyrrolidin-1-yl)-3,3-dimethyl-1-oxobutan-2-yl)nonanediamide]
C (C: ≤20% TYK2 degradation)	C (C: ≤20% TYK2 degradation)	–	–	CNC(=O)c1nnc(NC(=O)CNC(=O)CCCCCCCCNC(=O)C[C@H](NC(=O)[C@@H]2C[C@@H](O)CN2C(=O)[C@@H](NC(=O)C2(F)CC2)C(C)(C)C)c2ccc(-c3scnc3C)cc2)cc1Nc1cccc(-c2ncn(C)n2)c1OC [CPD-093, 6-(2-(9-((S)-3-((2S,4R)-1-((S)-2-(1-Fluorocyclopropane-1-carboxamido)-3,3-dimethylbutanoyl)-4-hydroxypyrrolidine-2-carboxamido)-3-(4-(4-methylthiazol-5-yl)phenyl)propanamido)nonanamido)acetamido)-4-((2-methoxy-3-(1-methyl-1H-1,2,4-triazol-3-yl)phenyl)amino)-N-methylpyridazine-3-carboxamide]
